Data taken from patent publication US20100041642A1, “UREA INHIBITORS OF MAP KINASES” (LOCUS PHARMACEUTICALS, INC., priority 2008, published 2010).

target: p38 (Homo sapiens, UniProt Q16539); assay: Protein Kinase Assay (33P incorporation from γ-[33P]ATP into GST-ATF-2); format: biochemical; conditions: 2 nM p38, preincubated 20 min at 30° C.; 10 uM cold ATP, 2 uM GST-ATF2, 70 min; read-out: ACT. (Activity), IC50 category in Protein Kinase Assay
Procedure, shortened: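 Compounds preincubated 20 min at 30 °C with 2 nM p38; reaction started with 2 uM GST-ATF-2 (aa 19-96) and 10 uM ATP plus γ-[33P]ATP, pH 7.5, 70 min at 30 °C, 2% DMSO. Phosphoric acid stop; 33P-labelled substrate captured on phosphocellulose and counted by scintillation.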

Sequence of p38 (Q16539 whole entry, the tested form may be a part): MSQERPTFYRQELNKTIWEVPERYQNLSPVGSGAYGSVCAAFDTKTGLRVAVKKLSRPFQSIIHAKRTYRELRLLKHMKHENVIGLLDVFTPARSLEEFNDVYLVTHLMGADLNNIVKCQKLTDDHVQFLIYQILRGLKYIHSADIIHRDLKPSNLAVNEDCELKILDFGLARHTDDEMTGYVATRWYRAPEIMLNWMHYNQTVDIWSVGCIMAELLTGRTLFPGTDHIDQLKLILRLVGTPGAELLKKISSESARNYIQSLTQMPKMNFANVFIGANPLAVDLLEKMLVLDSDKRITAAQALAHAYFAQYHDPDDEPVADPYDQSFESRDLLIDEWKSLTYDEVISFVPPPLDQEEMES

IC50 [nM] | Structure (SMILES)
< 100 | CNC(=O)c1ccc(-c2cc(NC(=O)Nc3sc(C(C)(C)C)cc3C(=O)N3CCNC(=O)C3(C)C)ccc2C)cn1 [5-(5-(3-(5-tert-butyl-3-(2,2-dimethyl-3-oxopiperazine-1-carbonyl)thiophen-2-yl)ureido)-2-methylphenyl)-N-methylpyridine-2-carboxamide]
< 100 | Cc1ccc(NC(=O)Nc2sc(C(C)(C)C)cc2C(=O)N2CCN(C)C(=O)C2(C)C)cc1-c1ccc(NS(C)(=O)=O)nc1 [N-(5-(5-(3-(5-tert-butyl-3-(2,2,4-trimethyl-3-oxopiperazine-1-carbonyl)thiophen-2-yl)ureido)-2-methylphenyl)pyridin-2-yl)methanesulfonamide]
< 100 | COC(=O)CN1CCN(C(=O)c2cc(C(C)(C)C)sc2NC(=O)Nc2ccc(C)c(-c3ccncc3)c2)C(C)(C)C1=O [methyl 2-(4-(2-tert-butyl-5-(3-(4-methyl-3-(pyridin-4-yl)phenyl)ureido)thiophene-4-carbonyl)-3,3-dimethyl-2-oxopiperazin-1-yl)acetate]
